Legend:
cyt c [1] = molecular target: T1, cyt c (Homo sapiens, UniProt P99999); assay: Photoluminescence of cyt c (532.8 nm laser excitation); settings: excitation 532.8 nm
Text: A light source 140, such as a laser or light-emitting diode (LED), illuminates the doped cyt c layer 110 at an excitation wavelength, such as 532.8 nm. […] (As understood by those skilled in the art, the gap between the valence band and the excited state is […] to the excitation wavelength.) After a short relaxation time, the electron decays from the excited state to a conduction band. When the electron relaxes to valence band from the conduction band, the doped cyt c layer 110 emits a photon at a luminescence wavelength, such as 650 nm, fixed by the gap between the valence and conduction bands.
Thus, as the aromatic-cationic peptide or aromatic-cationic peptide/cardiolipin or cardiolipin concentration in the doped cyt c layer 110 varies due to changes in the pH and/or temperature of the test substrate 130, the intensity at the luminescence wavelength varies as well. Detecting this change in intensity with a photodetector 150 yields an indication of the pH and/or temperature of the test substrate 130.
Photoluminescence (PL) was carried out to examine the effects of SS-31 on the electronic structure of conduction band of the heme of cyt c, an energy state responsible for electronic transport (FIG. 3). A […] laser (532.8 nm) was used to excite electrons in cyt c (FIG. 2A). Strong PL emission in cyt c state can be clearly identified at 650 nm (FIG. 2B).

cyt c [2] = molecular target: T1, cyt c; assay: Cyclic voltammetry of cyt c in solution
[3] = molecular target: heme environment of cytochrome c (with CL) (Homo sapiens, UniProt P99999); assay: Soret CD spectrum of cyt C in the presence of CL; assay type: binding; settings: cyt C 10 μM; CL 30 μg/ml; peptide 10 μM; 20 mM HEPES pH 7.5, 25° C.; FIG. 24
Chain of heme environment of cytochrome c (with CL) (P99999 2-105 limits assumed, species assumed): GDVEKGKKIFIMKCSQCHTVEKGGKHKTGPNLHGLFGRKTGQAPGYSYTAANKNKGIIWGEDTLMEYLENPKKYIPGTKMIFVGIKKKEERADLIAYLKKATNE
Procedure: Circular dichroism (CD) was carried out to examine the effects of the peptides on protecting the heme environment of cyt C from the acyl chain of CL. For heme proteins, the Soret CD spectrum is strictly correlated with the heme pocket conformation. In particular, the negative 416-420 nm Cotton effect is considered diagnostic of Fe(III)-Met80 coordination in native cyt C (Santucci and Ascoli, 1997). […] CD spectra were obtained using AVIV CD Spectrometer Model 410.
Changes in the Soret CD spectrum of cyt C (10 μM) were recorded in the absence (dotted line) and presence (dashed line) of 30 μg/ml CL, plus addition of different peptides (10 μM) (solid line) (FIG. 24). CD measurements were carried out using 20 mM HEPES, pH 7.5, at 25° C. and expressed as molar ellipticity (θ) (m Deg).

[4] = system: cyt c-depleted mitoplasts; assay: Respiration in cytochrome c-depleted mitoplasts; assay type: biochemical, rat
Procedure: Rates of respiration were measured in the presence of 500 μM Succinate with or without 100 μM SS-31. The experiment was carried out in triplicate, with n=3.
A model of cyt C tightly bound to mitochondrial cardiolipin was used to investigate interaction of SS-31 with cytochrome c-CL complex in mitochondria. After removal of outer membrane with digitonin, mitoplasts were washed with 120 mM KCl to remove all free and electrostatically associated cytochrome c, leaving only cytochrome c tightly bound to CL.

cytochrome c = cytochrome c (Homo sapiens, UniProt P99999); assay: Cytochrome c reduction monitored by absorption spectroscopy (glutathione or NAC as reducing agent); assay type: biochemical
Chain of cytochrome c (P99999 2-105 limits assumed, species assumed): as above
Procedure: Cytochrome c reduction: increasing amounts of aromatic-cationic peptides were added to a solution of oxidized cyt c. The formation of reduced cyt c was monitored by absorbance at […]. The rate of cyt c reduction was determined by non-linear analysis (Prizm software).
Time-resolved UV-Visible absorption spectroscopy was used to study the electron transport process of cyt c in the presence of peptides. Reduced cyt c was monitored by absorbance at a broad-band spectral range (200-1100 nm). The absorption changes were recorded with a UV/Visible spectrophotometer (Ultrospec 3300 pro, GE) in quartz cells with path lengths of 1 or 2 mm. N-acetylcysteine (NAC) and glutathione were used as electron donors to reduce oxidized cyt c. The rate constant of cyt c reduction was estimated by adding various concentrations of peptides. The dose dependence of the peptides was correlated to the cyt c reduction kinetics.
Absorption spectroscopy (UltroSpec 3300 Pro; 220-1100 nm) was used to determine if SS-31 modulates cyt c reduction (FIG. 1). Reduction of cyt c with glutathione is associated with multiple shifts in the Q band (450-650 nm), with a prominent shift at 550 nm.
Reduction of cyt c was monitored by increase in absorbance at 550 nm. […] Similar results were obtained using N-acetylcysteine (NAC) as a reducing agent (not shown).

T1 sequence (P99999 2-105 limits assumed, species assumed): as above

Question: With D-Arg-2′6′Dmt-Lys-Phe-NH2 [SS-31] as the substance, how does the “PL intensity of cyt c at 650 nm” value (cyt c [1]) read?
Answer: Its value is “increased dose-dependently”.

Question: And the “current for reduction and oxidation processes of cyt c” value (cyt c [2]; Au working electrode, Ag/AgCl reference, FIG. 2 upper panel)?
Answer: Its value is “increased current for both reduction and oxidation processes”.

Question: What about the “reduction/oxidation potentials of cyt c” value (cyt c [2]; FIG. 2 upper panel) of the same substance?
Answer: The value was “does not alter reduction/oxidation potentials”.

Question: What about the “increase of current (electron diffusion rate)” value (cyt c [2]; cyt c:SS31=1:2, TBE buffer, FIG. 2 lower panel) of the same substance?
Answer: The value was about 200%.

Question: What about the “disappearance of the negative Cotton effect caused by CL (heme environment of cytochrome c)” value [3] of the same substance?
Answer: Its value is “Protect the Heme Environment of Cytochrome C from the Acyl Chain of CL”.

Question: And the “mitochondrial O2 consumption (respiration)” value ([4]; 500 μM succinate, 100 μM peptide, once-frozen rat kidney mitochondria, FIG. 7)?
Answer: Its value is “Enhances Respiration in Cytochrome C-Depleted Mitoplasts”.

Question: And the “complex II respiration in mitoplasts” value ([4]; cytochrome c tightly bound to CL, digitonin, 120 mM KCl wash, dose-dependent, FIG. 28)?
Answer: The value was “enhances complex II respiration”.

Question: What about the “rate of NAC-induced cyt c reduction” value (cytochrome c; N-acetylcysteine as reducing agent) of the same substance?
Answer: The value was “dose-dependently increased the rate of NAC-induced cyt c reduction”.

Question: And the “kinetics of cyt c reduction induced by glutathione (GSH)” value (cytochrome c; absorbance at 550 nm, FIG. 13)?
Answer: The value was “can accelerate the kinetics of cyt c reduction”.

Question: What about the “cyt c reduction by peptide alone” value (cytochrome c; peptide alone at 100 μM) of the same substance?
Answer: Its value is “did not reduce cyt c”.

Question: And the “spectral weight shift at 550 nm of cyt c” value (cytochrome c; reduction of cyt c with glutathione, FIG. 1A)?
Answer: The value was “significant spectral weight shift at 550 nm”.

Question: And the “rate of cyt c reduction” value (cytochrome c; time-dependent spectroscopy, FIG. 1B)?
Answer: Its value is “increased the rate of cyt c reduction”.

From patent US20140349941A1, “AROMATIC-CATIONIC PEPTIDES AND USES OF SAME” (Cornell University, priority 2011, published 2014)
